Patent US6506766B1 (Abbott Laboratories, priority 1998, dated 2003)
Like-named read-outs stand apart in the source and are kept apart here.

Columns and labels:
[1] = target: T1, human glucocorticoid receptor-α [GRX] isoform (Homo sapiens, UniProt P04150); assay: Radioligand binding with human glucocorticoid receptor cytosol ([3H]-dexamethasone competition)
T1 construct: host or cells: insect SF21 cells (baculovirus)
T1 sequence (P04150 1-777): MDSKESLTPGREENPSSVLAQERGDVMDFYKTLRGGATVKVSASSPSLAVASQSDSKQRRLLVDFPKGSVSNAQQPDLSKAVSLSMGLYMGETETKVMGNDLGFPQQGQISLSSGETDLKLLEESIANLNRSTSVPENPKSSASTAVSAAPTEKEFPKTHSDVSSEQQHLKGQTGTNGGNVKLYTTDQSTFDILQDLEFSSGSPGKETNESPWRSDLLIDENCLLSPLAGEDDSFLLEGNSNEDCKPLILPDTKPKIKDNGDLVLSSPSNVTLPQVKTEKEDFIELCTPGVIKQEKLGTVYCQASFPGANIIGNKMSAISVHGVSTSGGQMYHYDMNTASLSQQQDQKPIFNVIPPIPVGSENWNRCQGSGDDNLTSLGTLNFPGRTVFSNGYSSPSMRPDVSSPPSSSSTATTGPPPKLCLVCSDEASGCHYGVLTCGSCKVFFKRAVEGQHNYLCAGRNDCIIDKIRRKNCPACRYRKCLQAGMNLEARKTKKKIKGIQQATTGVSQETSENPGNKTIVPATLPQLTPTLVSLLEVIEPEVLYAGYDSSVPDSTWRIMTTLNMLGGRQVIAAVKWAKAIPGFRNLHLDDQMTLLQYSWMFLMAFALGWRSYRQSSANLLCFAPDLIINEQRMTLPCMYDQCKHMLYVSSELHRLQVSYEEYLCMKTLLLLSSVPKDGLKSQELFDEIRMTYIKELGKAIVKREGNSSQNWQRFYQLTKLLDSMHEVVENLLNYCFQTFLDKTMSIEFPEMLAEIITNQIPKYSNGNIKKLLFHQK

[2] = target: T2, human progesterone receptor-A [PRA] isoform (Homo sapiens, UniProt P06401); assay: Radioligand binding with human progesterone receptor cytosol ([3H]-progesterone competition)
T2 construct: host or cells: insect SF21 cells (baculovirus)
T2 sequence (P06401 1-769 isoform P06401-2): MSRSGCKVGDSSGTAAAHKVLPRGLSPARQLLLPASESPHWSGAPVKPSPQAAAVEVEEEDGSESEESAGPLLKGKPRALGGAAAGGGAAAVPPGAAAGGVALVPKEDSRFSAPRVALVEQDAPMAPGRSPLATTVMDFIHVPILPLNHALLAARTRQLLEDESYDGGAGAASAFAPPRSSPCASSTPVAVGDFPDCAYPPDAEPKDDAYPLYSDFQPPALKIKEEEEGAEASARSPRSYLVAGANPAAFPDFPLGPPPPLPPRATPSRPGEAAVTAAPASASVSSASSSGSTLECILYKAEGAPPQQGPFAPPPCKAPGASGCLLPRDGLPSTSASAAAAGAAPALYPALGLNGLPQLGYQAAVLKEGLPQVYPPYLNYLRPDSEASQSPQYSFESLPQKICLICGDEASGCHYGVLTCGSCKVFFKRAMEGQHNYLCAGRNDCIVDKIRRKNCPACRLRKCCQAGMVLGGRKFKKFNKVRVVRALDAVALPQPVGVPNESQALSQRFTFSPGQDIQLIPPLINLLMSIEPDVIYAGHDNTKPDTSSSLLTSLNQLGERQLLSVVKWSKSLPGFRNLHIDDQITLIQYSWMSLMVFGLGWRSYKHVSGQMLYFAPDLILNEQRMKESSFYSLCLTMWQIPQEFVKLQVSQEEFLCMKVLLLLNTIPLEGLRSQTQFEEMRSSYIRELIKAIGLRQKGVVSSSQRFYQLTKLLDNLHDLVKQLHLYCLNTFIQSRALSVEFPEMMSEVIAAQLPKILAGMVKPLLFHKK

[3] = GRX cytosol expressed in insect SF21 cells, [3H]-Dex ~0.9 nM, 4° C. overnight, Ki by Cheng-Prusoff, KL ~[…], read-out: Ki (nM) GR
[4] = PRA cytosol expressed in insect SF21 cells, [3H]Prog ~0.8 nM, 4° C. overnight, Ki by Cheng-Prusoff, KL ~4.5 nM, read-out: Ki (nM) PR

Compound | Ki [1, 3] | Ki [2, 4] | further results
COc1c(OC(=O)N(C)C)ccc2c1-c1ccc3c(c1C(c1ccccc1OC(=O)N(C)C)O2)C(C)=CC(C)(C)N3 (centres unmarked) [Example 403, 2,5-Dihydro-9-N,N-dimethylcarbamoyloxy-10-methoxy-2,2,4-trimethyl-5-([2-N,N-dimethylcarbamoyloxy]phenyl)-1H-[1]benzopyrano[3,4-f]quinoline] |  |  | Ki ([1]; Ki (nM) GR): 131 nM; Ki ([2]; Ki (nM) PR): ≥ 10000 nM
CCC(C)=C1Oc2cccc(OC)c2-c2ccc3c(c21)C(C)=CC(C)(C)N3 [Example 355, 10-Methoxy-5-(1-methylpropylidene)-2,5-dihydro-5-phenyl-2,2,4-trimethyl-1H-[1]benzopyrano[3,4-f]quinoline] | 27 nM | 4280 nM | 
COc1cccc2c1-c1ccc3c(c1C(c1cccnc1)O2)C(C)=CC(C)(C)N3 (centres unmarked) [Example 214, 2,5-Dihydro-10-methoxy-5-(3-pyridyl)-2,2,4-trimethyl-1H-[1]benzopyrano[3,4-f]quinoline] | 5.7 nM | ≥ 10000 nM | 
COc1c(O)ccc2c1-c1ccc3c(c1C(C1C=CCCC1)O2)C(C)=CC(C)(C)N3 (racemic) [Example 236] | 0.89 nM | 36.2 nM | 
C=CCC1Oc2ccc(CO)c(OC)c2-c2ccc3c(c21)C(C)=CC(C)(C)N3 (centres unmarked) [Example 386, 2,5-Dihydro-9-hydroxymethyl-10-methoxy-2,2,4-trimethyl-5-allyl-1H-[1]benzopyrano[3,4-f]quinoline] | 6.5 nM | 105 nM | 
2,5-Dihydro-9-hydroxy-10-methoxy-2,2,4-trimethyl-5-((2-fluorophenyl)methyl)-1H-[1]benzopyrano[3,4-f]quinoline [Example 385] |  | 170 nM | Ki ([1]; read-out: Ki (nM) GR): 0.9 nM
C=Cc1cccc2c1-c1ccc3c(c1C(C1C=CCCC1)O2)C(C)=CC(C)(C)N3 (centres unmarked) [Example 340] | 1.8 nM | 254 nM | 
COc1c(Br)cc(Br)c2c1-c1ccc3c(c1C(C1C=CCCC1)O2)C(C)=CC(C)(C)N3 (centres unmarked) [Example 302, 7,9-Dibromo-5-[cyclohexen-3-yl]-10-methoxy-2,2,4-trimethyl-2,5-dihydro-1H-[1]benzopyrano[3,4-f]quinoline] | 5.9 nM | 99 nM | 
COc1c(OC(=O)CCC(=O)N(C)C)ccc2c1-c1ccc3c(c1C(c1cc(F)c(F)c(F)c1)O2)C(C)=CC(C)(C)N3 (centres unmarked) [Example 381, 2,5-Dihydro-9-(4-N,N-dimethylamino-4-oxo-butanoyloxy)-10-methoxy-2,2,4-trimethyl-5-(3,4,5-trifluorophenyl)-1H-[1]benzopyrano[3,4-f]quinoline] | 7.1 nM | 9820 nM | 
C=CCC1Oc2ccc(OC(=O)NC3CCCCC3)c(OC)c2-c2ccc3c(c21)C(C)=CC(C)(C)N3 (centres unmarked) [Example 443, 10-Methoxy-9-(cyclohexylaminocarbonyl)-oxy-5-(3-propenyl)-2,2,4-trimethyl-1H-2,5-dihydro-[1]benzopyrano[3,4-f]quinoline] |  |  | Ki ([1]; read-out: Ki (nM) GR): 63.5 nM; Ki ([2]; read-out: Ki (nM) PR): ≥ 10000 nM
COc1cccc2c1-c1ccc3c(c1C(=Cc1ccccn1)O2)C(C)=CC(C)(C)N3 [Example 128, 2,5-Dihydro-10-methoxy-2,2,4-trimethyl-5-(2-pyridinylmethylene)-1H-[1]benzopyrano[3,4-f]quinoline] | 5.9 nM | ≥ 10000 nM | 
COc1cccc2c1-c1ccc3c(c1C(C#Cc1ccccc1)O2)C(C)=CC(C)(C)N3 (centres unmarked) [Example 322, 2,5-Dihydro-10-methoxy-5-(2-phenylethynyl)-2,2,4-trimethyl-1H-[1]benzopyrano[3,4-f]quinoline] | 107 nM | 2300 nM | 

Continued by falling Ki [1, 3], values first:

Ki [1, 3] | Ki [2, 4] | Compound | further results
44 nM | 2880 nM | COc1cccc2c1-c1ccc3c(c1C(/C=C/c1ccccc1)O2)C(C)=CC(C)(C)N3 (stereo not drawn) [Example 321, trans 2,5-Dihydro-10-methoxy-5-(2-phenylethenyl)-2,2,4-trimethyl-1H-[1]benzopyrano[3,4-f]quinoline] | 
43 nM | ≥ 10000 nM | COc1cccc2c1-c1ccc3c(c1C(c1ccc(OC(C)=O)cc1)O2)C(C)=CC(C)(C)N3 (centres unmarked) [Example 94, 4-(2,5-Dihydro-10-methoxy-2,2,4-trimethyl-1H-[1]benzopyrano[3,4-f]quinolin5-yl)phenolacetate (Ester)] | 
30.3 nM | 6240 nM | COc1cccc2c1-c1ccc3c(c1C(=Cc1cc(Cl)cc(Cl)c1)O2)C(C)=CC(C)(C)N3 [Example 120, 5-[(3,5-dichlorphenyl)methylen]-2,5-dihydro-10-methoxy-2,2,4-trimethyl-1H-[1]benzopyrano[3,4-f]puinoline] | 
30.2 nM | 1870 nM | CC1=CC(C)(C)Nc2ccc3c(c21)C(c1ccccc1)Oc1ccc(Cl)c(OC(F)F)c1-3 (centres unmarked) [Example 231, 9-Chloro-10-difluoromethoxy-5-phenyl-2,2,4-trimethyl-2,5-dihydro-1H-[1]benzopyrano[3 4-f]quinoline] | 
17.7 nM | ≥ 10000 nM | O-[3-(2,5-Dihydro-10-methoxy-2,2,4-trimethyl-1H-[1]benzopyrano[3,4-f]quinolin-5-yl)phenyl]ester [Example 102] | 
6.1 nM | 9570 nM | COc1cccc2c1-c1ccc3c(c1C(=Cc1c(F)cccc1F)O2)C(C)=CC(C)(C)N3 [Example 123] | 
3.5 nM | ≥ 10000 nM | COc1cccc(C2Oc3cccc(OC)c3-c3ccc4c(c32)C(C)=CC(C)(C)N4)c1 (centres unmarked) [Example 85, 2,5-Dihydro-10-methoxy-5-(3-methoxyphenyl)-2,2,4-trimethyl-1H-[1]benzopyrano[3,4-f]quinoline] | 
2.8 nM | 199 nM | C=CCC1Oc2ccc(C(=O)OC)c(OC)c2-c2ccc3c(c21)C(C)=CC(C)(C)N3 (centres unmarked) [Example 388, 2,5-Dihydro-9-methylcarboxylate-10-methoxy-2,2,4-trimethyl-5-allyl-1H-[1]benzopyrano[3,4-f]quinoline] | 
2.5 nM | ≥ 10000 nM | COc1cccc2c1-c1ccc3c(c1[C@@H]([C@H]1C=C(CN(C)S(C)(=O)=O)CCC1)O2)C(C)=CC(C)(C)N3 (relative stereo) [Example 168, rel (5R, 3′R) 2,5-Dihydro-10-methoxy-5-(1-(N-methyl-N-methylsulfonylamino)methyl-3-cyclohexenyl)-2,2,4-trimethy-1H-[1]benzopyrano[3,4-f]quinoline] | 
1.2 nM | 938 nM | COc1c(O)ccc2c1-c1ccc3c(c1C(CC(C)C)O2)C(C)=CC(C)(C)N3 (centres unmarked) [Example 259, 2,5-Dihydro-9-hydroxy-10-methoxy-2,2,4-trimethyl-5-(2-methylpropyl)-1H-[1]benzopyrano[3,4-f]quinoline] | 
0.56 nM | 35.8 nM | COc1c(O)ccc2c1-c1ccc3c(c1[C@H]([C@H]1C=CCCC1)O2)C(C)=CC(C)(C)N3 [Example 273] | 
0.46 nM | 76.7 nM | C=CCC1Oc2ccc(OC(=O)CCCNC(C)=O)c(OC)c2-c2ccc3c(c21)C(C)=CC(C)(C)N3 (racemic) [Example 344, (+/−)2,5-Dihydro-9-(4-acetamidobutanoyloxy)-10-methoxy-2,2,4-trimethyl-5-allyl-1H-[1]benzopyranol[3,4-f]quinoline] | 
0.38 nM | 42 nM | COc1c(O)ccc2c1-c1ccc3c(c1[C@H]([C@H]1C=CCC1)O2)C(C)=CC(C)(C)N3 [Example 253, (−)(5S,3′R)2,5-Dihydro-9-hydroxy-10-methoxy-2,2,4-trimethyl-5-(3-cyclopentenyl)-1H-[1]benzopyrano[3,4-f]quinoline] | 
